# Key:
# [1] = tested on: ACC (acetyl-CoA carboxylase); assay: p-ACC expression level in L6 cell line by Western blot; assay type: cell-based; settings: Rattus norvegicus, L6 cells, 2 hours compound treatment, read-out: Activity AC1.3 (ACCp)
# Description: Evaluation of p-AMPK and p-ACC expression level in L6 cell line by Western-Blot
# This method evaluates the changes of AMP-activated protein kinase (AMPK) and ACC (acetyl-CoA carboxylase) activity by small molecular modulators through detecting the level of p-AMPK and p-ACC proteins in L6 cells using Western blot.
# L6 cells are maintained in DMEM medium supplemented with 10% FBS in 10-cm dishes. Prior to compounds treatment, L6 cells are seeded in 12-well-plates at concentration of 3×10^4 cells per well. After 24 hours of incubation in 12-well plates, L6 cells are differentiated by replacing the 10% FBS-DMEM medium with 2% FBS-DMEM. Differentiation usually takes 5 days, during which the culture medium is changed every 2 days.
# The compound concentrations typically range from 32 μM to 0.5 μM with 2-fold dilution in 2 ml DMEM and 7 doses. The final DMSO concentration is 0.4%. Berberine is used as a positive control at concentration of 16 μM. Before compound treatment, starve L6 cells for 2 hours by replacing the medium with DMEM, and then gently aspirate the media from each well. Add the compounds into the plates and incubate at 37 degree 5% CO2 for 2 hours.
# Prepare lysis buffer (RIPA buffer with protease-inhibitors and phosphorate-inhibitors) and place it on ice. After two hour's compound treatment, aspirate the medium from 12-well plates, add 70 ul lysis buffer to each well and keep the plates on ice for 5 min. Then scrape the cell lysate off the plates and transfer it to 1.5 ml eppendorf tubes. Keep the tube on ice for more 10 min, centrifugate the lysate at 13000 rpm, 4 degrees for 15 min and transfer the supernatant to clean tubes.
# Determine protein concentration for each sample using Quickstart Bradford protein quantitation kit. Mix 20 ug protein sample with 4 times loading buffer, heat them at 100° C. for 5 min, store the sample in −80° C. or perform Western blot assay directly. For Western blot assay, load 20 ug samples and 10 ul Pre-stained Protein Maker into 4-12% SDS-PAGE gradient gel. Run the samples at 100 V in the stacking gel and at 120 V in resolving gel until the Bromophenol dye reaches the bottom. Transfer the electrophoresed proteins to a PVDF membrane using Bio-Rad's Transblot for 120 min at 300 mA. Following the completion of transfer, the membrane is blocked with 5% non-fat milk for 2 hours at room temperature before incubated with primary antibody (p-AMPK and p-ACC) at 4° C. overnight. On the next day wash the membrane twice with TBST, add secondary antibody and incubate for 1 hour at room temperature. Wash the membrane twice with TBST. Develop p-AMPK and p-ACC protein expression level on the film in dark room with Amersham ECL plus kit. The bands of each sample are quantitated by Bio-Rad system, The AC1.3 value is analyzed using Prism 5.0.
# [2] = tested on: AMP-activated protein kinase (AMPK); assay: p-AMPK expression level in L6 cell line by Western blot; assay type: cell-based; settings: L6 cells, 2 hours compound treatment
# In short: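 Rat L6 myoblasts differentiated 5 days in 2% FBS-DMEM, starved 2 h in DMEM, then treated 2 h at 37° C. with compounds at 32-0.5 μM (2-fold, 7 doses; 0.4% DMSO). Lysates (20 μg) probed by Western blot for p-AMPK and p-ACC with ECL detection. AC1.3 derived from band quantitation.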
SMILES,EC (1.3-fold) [1],Activity AC1.3 (AMPKp) [2]
"CC(C)(C)c1ccc(-c2cccc(C3CC(C)(C)c4cc(C(=O)NS(=O)(=O)C5CC5)ccc4N3)c2)cc1 (stereo not drawn) [Example 40, Cyclopropanesulfonic acid [2-(4′-tert-butyl-biphenyl-3-yl)-4,4-dimethyl-1,2,3,4-tetrahydro-quinoline-6-carbonyl]-amide]",6.17 µM,6.6 µM
"Cc1ccc(N2CCN(c3cncc(C4CC(C)(C)c5cc(C(=O)NS(C)(=O)=O)ccc5N4)c3)CC2)c(C)c1 (stereo not drawn) [Example 49, N-(2-{5-[4-(2,4-dimethyl-phenyl)-piperazin-1-yl]-pyridin-3-yl}-4,4-dimethyl-1,2,3,4-tetrahydro-quinoline-6-carbonyl)-methanesulfonamide]",6.93 µM,0.15 µM
"Cc1ccc(N2CCN(c3cccc(C4CC(C)(C)c5cc(C(=O)NS(C)(=O)=O)ccc5N4)c3)CC2)c(C)c1 (stereo not drawn) [Example 53, N-(2-{3-[4-(2,4-dimethyl-phenyl)-piperazin-1-yl]-phenyl}-4,4-dimethyl-1,2,3,4-tetrahydro-quinoline-6-carbonyl)-methanesulfonamide]",11.7 µM,4.79 µM
"Cc1ccccc1N1CCN(c2cccc(C3CC(C)(C)c4cc(F)cc(C(=O)NS(C)(=O)=O)c4N3)c2)CC1 (stereo not drawn) [Example 57, N-{6-fluoro-4,4-dimethyl-2-[3-(4-o-tolyl-piperazin-1-yl)-phenyl]-1,2,3,4-tetrahydro-quinoline-8-carbonyl}-methanesulfonamide]",0.61 µM,0.85 µM
"Cc1ccccc1N1CCN(c2cccc(C3CC(C)(C)c4cc(F)cc(C(=O)NS(=O)(=O)C5CC5)c4N3)c2)CC1 (stereo not drawn) [Example 58, Cyclopropanesulfonic acid {6-fluoro-4,4-dimethyl-2-[3-(4-o-tolyl-piperazin-1-yl)-phenyl]-1,2,3,4-tetrahydro-quinoline-8-carbonyl}-amide]",0.36 µM,0.46 µM
"CC1(C)CC(c2cccc(N3CCN(c4ccccc4F)CC3)c2)Nc2c(C(=O)NS(C)(=O)=O)cc(F)cc21 (stereo not drawn) [Example 59, N-(6-fluoro-2-{3-[4-(2-fluoro-phenyl)-piperazin-1-yl]-phenyl}-4,4-dimethyl-1,2,3,4-tetrahydro-quinoline-8-carbonyl)-methanesulfonamide]",0.74 µM,7.73 µM
"CC1(C)CC(c2cccc(N3CCCC3)c2)Nc2c(C(=O)NS(=O)(=O)C3CC3)cc(Cl)cc21 (stereo not drawn) [Example 72, Cyclopropanesulfonic acid [6-chloro-4,4-dimethyl-2-(3-pyrrolidin-1-yl-phenyl)-1,2,3,4-tetrahydro-quinoline-8-carbonyl]-amide]",3.49 µM,0.14 µM
"CC(C)(C)c1ccc(-c2cncc(C3CC(C)(C)c4cc(C(=O)NS(=O)(=O)C5CC5)ccc4N3)c2)cc1 (stereo not drawn) [Example 74, Cyclopropanesulfonic acid {2-[5-(4-tert-butyl-phenyl)-pyridin-3-yl]-4,4-dimethyl-1,2,3,4-tetrahydro-quinoline-6-carbonyl}-amide]",1.67 µM,0.06 µM
"CC1(C)CC(c2cccc(N3CCN(c4ccccc4)CC3)c2)Nc2c(C(=O)NS(=O)(=O)C3CC3)cccc21 (stereo not drawn) [Example 76, Cyclopropanesulfonic acid {4,4-dimethyl-2-[3-(4-phenyl-piperazin-1-yl)-phenyl]-1,2,3,4-tetrahydro-quinoline-8-carbonyl}-amide]",0.57 µM,3.12 µM
